# Data as given in patent publication US5081261A, “4-(1-hydroxy-2-N-substituted sulfonamido) ethyl-5-hydroxy-2(5H)-furanones and 4-(N-substituted sulfonamido)-2-ethenyl-5-hydroxy-2(5H)-furanones as anti-inflammatory agents” (Allergan, Inc., priority 1990, dated 1992).
# Columns and labels:
# [1] = target: bee venom phospholipase A2 (Apis mellifera, UniProt P00630); experiment: biochemical
# [2] = prior art; cited from earlier work
# [3] = system: phosphoinositide-specific phospholipase C; conditions: reported for manoalide, Bennett et al; cited from earlier work
# Chain of bee venom phospholipase A2 (P00630 34-167 limits assumed): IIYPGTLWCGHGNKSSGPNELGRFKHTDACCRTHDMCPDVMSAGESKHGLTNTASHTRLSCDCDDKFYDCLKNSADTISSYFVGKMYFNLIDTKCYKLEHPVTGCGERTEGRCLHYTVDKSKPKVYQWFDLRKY
SMILES,IC50 [1] [nM],biological properties [2],inhibition of phosphoinositide-specific phospholipase C [3]
CC1=C(CC/C(C)=C/CCC2=CCC(C3=CC(=O)OC3O)OC2O)C(C)(C)CCC1 (stereo not drawn) [Compound 1],30,"anti-inflammatory,immunosuppressive and analgesic properties",inhibition
CC1=C(CC/C(C)=C/CCC(C=O)=CCC(O)C2=CC(=O)OC2O)C(C)(C)CCC1 (stereo not drawn) [Compound 2],–,anti-inflammatory activity,–
CC1=C(CC/C(C)=C/CCC(C=O)=CC=CC2=CC(=O)OC2O)C(C)(C)CCC1 (stereo not drawn) [Compound 3],–,anti-inflammatory activity,–
"CCCCCCCCCCCCNS(=O)(=O)/C=C/C1=CC(=O)OC1O (stereo not drawn) [Compound 4, 4-[2-(N-Dodecylsulfonamido)ethenyl]-5-hydroxy-2(5H)-furanone]",40,–,–
"CCCCCCCCCCCCNS(=O)(=O)CC(O)C1=CC(=O)OC1O (stereo not drawn) [Compound 5, 4-[1-Hydroxy-2-(N-dodecylsulfonamido)]ethyl-5-hydroxy-2(5H)-furanone]",100,–,–
"CCCCCCCCCCCCNS(=O)(=O)CC(OC(C)=O)C1=CC(=O)OC1O (stereo not drawn) [Compound 6, 4-[1-Acetoxy-2-(N-dodecylsulfonamido)]ethyl-5-hydroxy-2(5H)-furanone]",50,–,–
"CCCCCCCCCCCCNS(=O)(=O)CC(OC(=O)CCCC(=O)O)C1=CC(=O)OC1O (stereo not drawn) [Compound 7, 4-[1-Gluraroyloxy-2-(N-dodecylsulfonamido)]ethyl-5-hydroxy-2(5H)-furanone]",50,–,–
